In assay [1] the target is purified recombinant human GAC (GLS1) (Homo sapiens (Human), UniProt O94925). Nature of the assay: GLS1 Enzymatic Activity Assay (dual-coupled enzymatic assay, resorufin/Amplex UltraRed readout).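 Further: glutamate from GAC coupled via glutamate oxidase and peroxidase to resorufin, read as fluorescence (ex 530, em 590 nm) kinetically or at 20 min, four-parameter logistic IC50 fit.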 Type of assay: biochemical.
In assay [2] the test system is A549 cells. Description: Proliferation Assay (A549 viability, Cell Titer Fluor, 72 hours). The note with it: Homo sapiens. The class given is cell-based. The gist of the method:
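Cell Titer Fluor fluorescence after 72 h compound treatment (0.5% DMSO, 37 °C, 5% CO2) of A549 cells plated 24 h earlier at 1000/well. Four-parameter logistic fitting gave IC50.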

The record followed here is patent publication US10344025B2, “GLS1 inhibitors for treating disease” (Board of Regents, The University of Texas System, priority 2014, dated 2019).

Each structure is given as a SMILES string. pEC50, pIC50: −log10 of the molar value. Bounds are passed on as bounds.

purified recombinant human GAC (GLS1), sequence (O94925 other isoform, or with tags, fused parts or gaps): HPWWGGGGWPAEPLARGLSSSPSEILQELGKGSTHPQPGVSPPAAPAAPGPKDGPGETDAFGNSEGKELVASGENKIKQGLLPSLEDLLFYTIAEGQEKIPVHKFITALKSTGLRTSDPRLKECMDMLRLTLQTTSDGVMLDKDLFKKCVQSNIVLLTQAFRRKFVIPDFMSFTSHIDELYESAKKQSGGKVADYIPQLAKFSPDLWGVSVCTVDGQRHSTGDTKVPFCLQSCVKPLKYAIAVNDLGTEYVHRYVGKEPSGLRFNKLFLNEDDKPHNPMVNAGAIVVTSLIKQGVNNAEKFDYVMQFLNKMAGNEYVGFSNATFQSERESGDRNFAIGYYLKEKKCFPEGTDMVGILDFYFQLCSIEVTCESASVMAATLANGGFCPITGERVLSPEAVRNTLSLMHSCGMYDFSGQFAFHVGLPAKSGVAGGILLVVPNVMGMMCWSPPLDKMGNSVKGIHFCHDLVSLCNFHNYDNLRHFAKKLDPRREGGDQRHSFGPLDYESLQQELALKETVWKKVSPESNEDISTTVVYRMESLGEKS

Broadly, the pIC50 is the IC50 on a negative log10 scale, so that one unit is a factor of ten. The term pEC50 denotes the EC50 on a negative log10 scale, so that one unit is a factor of ten. High values mean a small EC50, low ones a large EC50. Regarding `O=C(Cc1ccccn1)Nc1nnc(CCC(F)Cn2cc(C(=O)NCc3cccc(OC(F)(F)F)c3)nn2)s1` (stereo not drawn) [Example 513, 1-(2-fluoro-4-{5-[2-(pyridin-2-yl)acetamido]-1,3,4-thiadiazol-2-yl}butyl)-N-{[3-(trifluoromethoxy)phenyl]methyl}-1H-1,2,3-triazole-4-carboxamide], the negative logarithm of the IC50 (pIC50) in assay [1] was more than 7.00. In assay [2] (A549, 72 h), the pEC50 is more than 7.00.
As to `O=C(Cc1ccccn1)Nc1nnc(CCC(F)Cn2cc(C(=O)NCc3cc(OC(F)(F)F)ccc3F)nn2)s1` (stereo not drawn) [Example 514, 1-(2-fluoro-4-{5-[2-(pyridin-2-yl)acetamido]-1,3,4-thiadiazol-2-yl}butyl)-N-{[2-fluoro-5-(trifluoromethoxy)phenyl]methyl}-1H-1,2,3-triazole-4-carboxamide], in assay [1], the pIC50 was more than 7.00. The compound further gave a pEC50 in assay [2] (A549, 72 h) of more than 7.00.
`N#CCNC(=O)c1nnc(CCC(F)Cn2cc(C(=O)NCc3cccc(OC(F)(F)F)c3)nn2)s1` (stereo not drawn) [Example 515, N-(cyanomethyl)-5-{3-fluoro-4-[4-({[3-(trifluoromethoxy)phenyl]methyl}carbamoyl)-1H-1,2,3-triazol-1-yl]butyl}-1,3,4-thiadiazole-2-carboxamide]: in assay [1], the pIC50 is more than 7.00. For the same compound, the pEC50 in assay [2] (A549, 72 h) was 6.30 to 7.00.
`O=C(Cc1cc(OC(F)(F)F)ccc1F)Nc1nnc(CCC(F)Cn2cc(C(=O)NCc3ccc(C(F)(F)F)cn3)nn2)s1` (stereo not drawn) [Example 516, 1-[2-fluoro-4-(5-{2-[2-fluoro-5-(trifluoromethoxy)phenyl]acetamido}-1,3,4-thiadiazol-2-yl)butyl]-N-{[5-(trifluoromethyl)pyridin-2-yl]methyl}-1H-1,2,3-triazole-4-carboxamide]: the pIC50 in assay [1] is more than 7.00. For the same compound, in assay [2] (A549, 72 h), the pEC50 is more than 7.00.
For `O=C(Cc1cc(OC(F)(F)F)ccc1F)Nc1nnc(CCC(F)Cn2cc(C(=O)NCc3cc(C(F)(F)F)ccn3)nn2)s1` (stereo not drawn) [Example 517, 1-[2-fluoro-4-(5-{2-[2-fluoro-5-(trifluoromethoxy)phenyl]acetamido}-1,3,4-thiadiazol-2-yl)butyl]-N-{[4-(trifluoromethyl)pyridin-2-yl]methyl}-1H-1,2,3-triazole-4-carboxamide], the pIC50 in assay [1] is more than 7.00. The compound further showed a negative-log EC50 (pEC50) in assay [2] (A549, 72 h) of more than 7.00.
Turning to `CNC(=O)c1cn(CC(F)CCc2nnc(NC(=O)Cc3cc(OC(F)(F)F)ccc3F)s2)nn1` (stereo not drawn) [Example 518, 1-[2-fluoro-4-(5-{2-[2-fluoro-5-(trifluoromethoxy)phenyl]acetamido}-1,3,4-thiadiazol-2-yl)butyl]-N-methyl-1H-1,2,3-triazole-4-carboxamide], the pIC50 in assay [1] was more than 7.00. The compound also had a negative-log EC50 (pEC50) in assay [2] (A549, 72 h) of more than 7.00.
`CNC(=O)c1cn(CC(F)CCc2nnc(NC(=O)Cc3ccccn3)s2)nn1` (stereo not drawn) [Example 519, 1-(2-fluoro-4-{5-[2-(pyridin-2-yl)acetamido]-1,3,4-thiadiazol-2-yl}butyl)-N-methyl-1H-1,2,3-triazole-4-carboxamide]: in assay [1], the pIC50 was 6.30 to 7.00. In assay [2] (A549, 72 h), this compound had a pEC50 of 5.30 to 6.30.
In the same order, the values of `O=C(NCc1cc(C(F)(F)F)ccn1)c1cn(CC(F)CCc2nnc(C(=O)NCc3cc(C(F)(F)F)ccn3)s2)nn1` (stereo not drawn) [Example 520, 5-{3-fluoro-4-[4-({[4-(trifluoromethyl)pyridin-2-yl]methyl}carbamoyl)-1H-1,2,3-triazol-1-yl]butyl}-N-{[4-(trifluoromethyl)pyridin-2-yl]methyl}-1,3,4-thiadiazole-2-carboxamide] are more than 7.00 and more than 7.00.
On to `NC(=O)c1nnc(CCC(F)Cn2cc(C(=O)NCc3cccc(OC(F)(F)F)c3)nn2)s1` (stereo not drawn) [Example 521, 5-{3-fluoro-4-[4-({[3-(trifluoromethoxy)phenyl]methyl}carbamoyl)-1H-1,2,3-triazol-1-yl]butyl}-1,3,4-thiadiazole-2-carboxamide], for which, in assay [1], the negative-log IC50 (pIC50) was 6.30 to 7.00. The pEC50 in assay [2] (A549, 72 h) was 6.30 to 7.00.
As for `CCNC(=O)c1nnc(CCC(F)Cn2cc(C(=O)NCc3cccc(OC(F)(F)F)c3)nn2)s1` (stereo not drawn) [Example 522, N-ethyl-5-{3-fluoro-4-[4-({[3-(trifluoromethoxy)phenyl]methyl}carbamoyl)-1H-1,2,3-triazol-1-yl]butyl}-1,3,4-thiadiazole-2-carboxamide], the pIC50 in assay [1] is more than 7.00. For the same compound, in assay [2] (A549, 72 h), the pEC50 is 6.30 to 7.00.
In the same order, the values of `COCCNC(=O)c1nnc(CCC(F)Cn2cc(C(=O)NCc3cccc(OC(F)(F)F)c3)nn2)s1` (stereo not drawn) [Example 523, 5-{3-fluoro-4-[4-({[3-(trifluoromethoxy)phenyl]methyl}carbamoyl)-1H-1,2,3-triazol-1-yl]butyl}-N-(2-methoxyethyl)-1,3,4-thiadiazole-2-carboxamide] are 6.30 to 7.00 and 5.30 to 6.30.
The corresponding values for `CNC(=O)c1cn(CCC(F)Cn2cc(NC(=O)Cc3cccc(OC(F)(F)F)c3)nn2)nn1` (stereo not drawn) [Example 524, 1-[3-fluoro-4-(4-{2-[3-(trifluoromethoxy)phenyl]acetamido}-1H-1,2,3-triazol-1-yl)butyl]-N-methyl-1H-1,2,3-triazole-4-carboxamide] are more than 7.00 and 6.30 to 7.00.
With `CNC(=O)c1cn(CCC(F)Cn2cc(NC(=O)Cc3cc(OC(F)(F)F)ccc3F)nn2)nn1` (stereo not drawn) [Example 525, 1-[3-fluoro-4-(4-{2-[2-fluoro-5-(trifluoromethoxy)phenyl]acetamido}-1H-1,2,3-triazol-1-yl)butyl]-N-methyl-1H-1,2,3-triazole-4-carboxamide], in assay [1], the pIC50 is more than 7.00. Moreover, the negative logarithm of the EC50 (pEC50) in assay [2] (A549, 72 h) was 6.30 to 7.00.
As for `NC(=O)c1cn(CC(F)CCc2nnc(NC(=O)Cc3cccc(OC(F)(F)F)c3)s2)nn1` (stereo not drawn) [Example 530, 1-[2-fluoro-4-(5-{2-[3-(trifluoromethoxy)phenyl]acetamido}-1,3,4-thiadiazol-2-yl)butyl]-1H-1,2,3-triazole-4-carboxamide], the pIC50 in assay [1] is more than 7.00. For the same compound, the negative logarithm of the EC50 (pEC50) in assay [2] (A549, 72 h) was 5.30 to 6.30.
In the same order, the values of `CCNC(=O)c1cn(CC(F)CCc2nnc(NC(=O)Cc3cccc(OC(F)(F)F)c3)s2)nn1` (stereo not drawn) [Example 531, N-ethyl-1-[2-fluoro-4-(5-{2-[3-(trifluoromethoxy)phenyl]acetamido}-1,3,4-thiadiazol-2-yl)butyl]-1H-1,2,3-triazole-4-carboxamide] are more than 7.00 and 6.30 to 7.00.
Regarding `COCCNC(=O)c1cn(CC(F)CCc2nnc(NC(=O)Cc3cccc(OC(F)(F)F)c3)s2)nn1` (stereo not drawn) [Example 532, 1-[2-fluoro-4-(5-{2-[3-(trifluoromethoxy)phenyl]acetamido}-1,3,4-thiadiazol-2-yl)butyl]-N-(2-methoxyethyl)-1H-1,2,3-triazole-4-carboxamide], the pIC50 in assay [1] was more than 7.00. In addition, the pEC50 in assay [2] (A549, 72 h) was 6.30 to 7.00.
In the same order, the values of `O=C(Cc1cccc(OC(F)(F)F)c1)Nc1nnc(CCC(F)Cn2cc(C(=O)NCc3ccccn3)nn2)s1` (stereo not drawn) [Example 533, 1-[2-fluoro-4-(5-{2-[3-(trifluoromethoxy)phenyl]acetamido}-1,3,4-thiadiazol-2-yl)butyl]-N-(pyridin-2-ylmethyl)-1H-1,2,3-triazole-4-carboxamide] are more than 7.00 and more than 7.00.
The corresponding values for `O=C(Cc1cccc(OC(F)(F)F)c1)Nc1nnc(CCC(F)Cn2cc(C(=O)NC3CC3)nn2)s1` (stereo not drawn) [Example 534, N-cyclopropyl-1-[2-fluoro-4-(5-{2-[3-(trifluoromethoxy)phenyl]acetamido}-1,3,4-thiadiazol-2-yl)butyl]-1H-1,2,3-triazole-4-carboxamide] are more than 7.00 and 6.30 to 7.00.
`O=C(Cc1cccc(OC(F)(F)F)c1)Nc1nnc(CCC(F)Cn2cc(C(=O)NCC3CC3)nn2)s1` (stereo not drawn) [Example 535, N-(cyclopropylmethyl)-1-[2-fluoro-4-(5-{2-[3-(trifluoromethoxy)phenyl]acetamido}-1,3,4-thiadiazol-2-yl)butyl]-1H-1,2,3-triazole-4-carboxamide]: the pIC50 in assay [1] is more than 7.00. Moreover, the pEC50 in assay [2] (A549, 72 h) was 6.30 to 7.00.
In the same order, the values of `O=C(Cc1cccc(OC(F)(F)F)c1)Nc1nnc(CCC(F)Cn2cc(C(=O)NCC(F)(F)F)nn2)s1` (stereo not drawn) [Example 536, 1-[2-fluoro-4-(5-{2-[3-(trifluoromethoxy)phenyl]acetamido}-1,3,4-thiadiazol-2-yl)butyl]-N-(2,2,2-trifluoroethyl)-1H-1,2,3-triazole-4-carboxamide] are more than 7.00 and 6.30 to 7.00.
The corresponding values for `O=C(Cc1cccc(OC(F)(F)F)c1)Nc1nnc(CCC(F)Cn2cc(C(=O)NCc3ncccc3F)nn2)s1` (stereo not drawn) [Example 537, 1-[2-fluoro-4-(5-{2-[3-(trifluoromethoxy)phenyl]acetamido}-1,3,4-thiadiazol-2-yl)butyl]-N-[(3-fluoropyridin-2-yl)methyl]-1H-1,2,3-triazole-4-carboxamide] are more than 7.00 and 6.30 to 7.00.
Regarding `CNC(=O)c1cn(CC(F)CCn2cc(NC(=O)Cc3cccc(OC(F)(F)F)c3)nn2)nn1` (stereo not drawn) [Example 538, 1-[2-fluoro-4-(4-{2-[3-(trifluoromethoxy)phenyl]acetamido}-1H-1,2,3-triazol-1-yl)butyl]-N-methyl-1H-1,2,3-triazole-4-carboxamide], in assay [1], the pIC50 was more than 7.00. This compound also gave a pEC50 in assay [2] (A549, 72 h) of 6.30 to 7.00.
In the case of `CNC(=O)c1cn(CC(F)CCn2cc(NC(=O)Cc3cc(OC(F)(F)F)ccc3F)nn2)nn1` (stereo not drawn) [Example 539, 1-[2-fluoro-4-(4-{2-[2-fluoro-5-(trifluoromethoxy)phenyl]acetamido}-1H-1,2,3-triazol-1-yl)butyl]-N-methyl-1H-1,2,3-triazole-4-carboxamide], in assay [1], the pIC50 is more than 7.00. The same compound gave a pEC50 in assay [2] (A549, 72 h) of 6.30 to 7.00.
For `O=C(Cc1ccccn1)Nc1nnc(CCC(F)Cn2cc(C(=O)NCc3cc(C(F)(F)F)ccn3)nn2)s1` (stereo not drawn) [Example 540, 1-(2-fluoro-4-(5-(2-(pyridin-2-yl)acetamido)-1,3,4-thiadiazol-2-yl)butyl)-N-((4-(trifluoromethyl)pyridin-2-yl)methyl)-1H-1,2,3-triazole-4-carboxamide], the pIC50 in assay [1] is more than 7.00. The compound also had a pEC50 in assay [2] of more than 7.00.
